Laboratory results from US9149465B2, “Isoxazolines as inhibitors of fatty acid amide hydrolase” (Infinity Pharmaceuticals, Inc., priority 2009, dated 2015).
pKi: −log10 of the molar value.

Molecular target: T1, human FAAH (Homo sapiens, UniProt O00519)
T1 construct: host or cells: COS-7 cells, transient transfection; 13,000 g membrane fraction solubilised in 1% Triton X-100
T1 sequence (O00519 1-579): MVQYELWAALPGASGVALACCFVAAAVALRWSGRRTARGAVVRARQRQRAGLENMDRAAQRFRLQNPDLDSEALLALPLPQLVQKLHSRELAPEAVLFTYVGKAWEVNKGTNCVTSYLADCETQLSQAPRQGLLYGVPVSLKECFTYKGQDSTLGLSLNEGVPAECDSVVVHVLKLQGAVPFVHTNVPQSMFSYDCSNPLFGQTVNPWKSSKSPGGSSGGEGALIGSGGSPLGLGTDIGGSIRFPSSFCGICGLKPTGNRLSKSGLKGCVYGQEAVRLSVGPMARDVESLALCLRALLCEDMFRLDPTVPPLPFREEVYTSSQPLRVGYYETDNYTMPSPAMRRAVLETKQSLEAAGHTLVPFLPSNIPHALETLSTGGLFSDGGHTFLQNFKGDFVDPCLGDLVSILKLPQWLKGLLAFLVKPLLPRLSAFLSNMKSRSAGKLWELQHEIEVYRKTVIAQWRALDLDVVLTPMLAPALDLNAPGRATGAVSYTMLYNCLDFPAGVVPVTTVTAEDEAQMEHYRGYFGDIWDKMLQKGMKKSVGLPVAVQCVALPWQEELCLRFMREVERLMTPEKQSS
Assay: Inhibition of human FAAH (AMC arachidonoyl amide fluorescence assay)
Format: biochemical
Conditions: inhibitor preincubated 30 minutes at room temperature; 20 μM AMC arachidonoyl amide; 4 hours; read-out: Activity (Ki, inhibitors of human FAAH)
Summary of the method: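 Solubilized membrane fraction from COS-7 cells transiently expressing human FAAH (0.05 mg/mL final) preincubated 30 min at room temperature with 3-fold serially diluted inhibitor, then reacted 4 h at room temperature with 20 μM AMC arachidonoyl amide. Stopped with α-ketoheterocycle; fluorescence read. Ki from single-site competitive fit, Km fixed at 12 μM.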

| pKi | SMILES |
| --- | --- |
| ≥ 7.00 | FC(F)(F)Oc1ccc(C2CC(Oc3cncnc3)=NO2)cc1Cl (racemic) [I-125] |
| ≥ 7.00 | COC(=O)c1ccc(OC2=NOC(c3ccc(Oc4ccccc4)cc3)C2)cn1 (racemic) [I-67] |
| 6.00 to 7.00 | COC(=O)c1cccc(-c2ccc(OC3=NOC(c4ccc(OC(F)(F)F)cc4)C3)cn2)c1 (racemic) [I-83] |
| ≥ 7.00 | Cc1nnc(-c2cncc(OC3=NOC(C)(c4ccc(OC(F)(F)F)cc4)C3)c2)o1 (racemic) [I-229] |
| ≤ 6.00 | O[C@H](CNC1=NOC(c2ccc(Oc3ccccc3)cc2)C1)c1ccccc1 (mixture of isomers) [I-245] |
| ≥ 7.00 | ClC1=NOC(c2ccc(Oc3ccccc3)cc2)C1 (single isomer, unassigned) [I-17] |
| ≤ 6.00 | O=S(=O)(C1=NOC(c2ccc(OC(F)(F)F)cc2)C1)c1ccccc1 (racemic) [I-250] |
| ≥ 7.00 | CC1(c2ccc(Oc3ccccc3)cc2)CC(Oc2cccnc2)=NO1 (racemic) [I-89] |
| ≤ 6.00 | CC1(c2ccc(OC(F)(F)F)cc2)CC(Oc2cc3ccccn3n2)=NO1 (racemic) [I-172] |
| ≥ 7.00 | CCCCc1ccc(C2CC(Oc3ccc(S(C)(=O)=O)nc3)=NO2)cc1 (racemic) [I-181] |
| ≥ 7.00 | CSc1ccc(OC2=NOC(C)(c3ccc(OC(F)(F)F)cc3)C2)cn1 (racemic) [I-261] |
| ≥ 7.00 | c1ccc(-c2ccc([C@H]3CC(Oc4cccnc4)=NO3)cc2)cc1 (racemic) [I-101] |
| 6.00 to 7.00 | CC(C)CS(=O)(=O)c1ccc(OC2=NOC(c3ccc(OC(F)(F)F)cc3)C2)cn1 (racemic) [I-184] |
| ≤ 6.00 | N[S@SP3](=O)(=O)c1cccc(OC2=NOC(c3ccc(Oc4ccccc4)cc3)C2)c1 (racemic) [I-63] |
| 6.00 to 7.00 | CSc1ncc(OC2=NOC(c3ccc(OC(F)(F)F)cc3)C2)cn1 (racemic) [I-132] |
| 6.00 to 7.00 | O=C(O)c1cccc(-c2ccc(OC3=NOC(c4ccc(OC(F)(F)F)cc4)C3)cn2)c1 (racemic) [I-85] |
| 6.00 to 7.00 | CC1(c2ccc(OC(F)(F)F)cc2)CC(Oc2cccnc2)=NO1 (racemic) [I-88] |
| ≥ 7.00 | FC(F)(F)Oc1ccc(C2CC(Oc3ccc(-c4cnoc4)nc3)=NO2)cc1 (racemic) [I-194] |
| ≥ 7.00 | CC1(c2ccc(OC(F)(F)F)cc2)CC(Oc2cccc(-c3nnco3)c2)=NO1 (racemic) [I-232] |
| ≥ 7.00 | Clc1ccc([C@H]2CC(Br)=NO2)cc1 (racemic) [I-3] |
| ≥ 7.00 | BrC1=NO[C@@H](c2ccc3c(c2)OCO3)C1 (racemic) [I-16] |
| ≥ 7.00 | c1ccc(Oc2ccc(C3CC(Oc4cnc5[nH]ccc5c4)=NO3)cc2)cc1 (racemic) [I-68] |
| ≤ 6.00 | N#Cc1ccccc1OC1=NOC(c2ccc(Oc3ccccc3)cc2)C1 (single isomer, unassigned) [I-28] |
| ≤ 6.00 | CN(C1=NOC(c2ccc(OC(F)(F)F)cc2)C1)c1ccc(C(=O)O)cc1 (racemic) [I-255] |
| ≥ 7.00 | FC(F)(F)Oc1ccc(C2CC(Oc3cccnc3)=NO2)cc1 (racemic) [I-70] |

| pKi | SMILES |
| --- | --- |
| ≥ 7.00 | COC(=O)c1cc(OC2=NOC(c3ccc(OC(F)(F)F)cc3)C2)ccn1 (racemic) [I-151] |
| ≥ 7.00 | CNC(=O)c1ccc(OC2=NOC(c3ccc(OC(F)(F)F)cc3)C2)cn1 (racemic) [I-107] |
| ≥ 7.00 | O=C(NCCO)c1ccc(OC2=NOC(c3ccc(OC(F)(F)F)cc3)C2)cn1 (racemic) [I-109] |
| ≥ 7.00 | O=C(OCc1ccccc1)c1ccc(C2CC(Br)=NO2)cc1 (single isomer, unassigned) [I-21] |
| ≥ 7.00 | COC(=O)c1ccc(OC2=NOC(c3ccc(OC(F)(F)F)cc3)C2)cn1 (racemic) [I-96] |
| ≥ 7.00 | FC(F)(F)Oc1ccc(C2CC(Oc3ccc(-c4cnn[nH]4)nc3)=NO2)cc1 (racemic) [I-236] |
| ≥ 7.00 | CC1(c2ccc(OC(F)(F)F)cc2)CC(Oc2ccc(C(=O)NO)nc2)=NO1 (racemic) [I-117] |
| 6.00 to 7.00 | FC(F)(F)Oc1ccc(C2CC(Oc3cccc(-c4nnn[nH]4)c3)=NO2)cc1 (racemic) [I-174] |
| ≤ 6.00 | [O-][S+](C1=NOC(c2ccc(OC(F)(F)F)cc2)C1)c1ccccc1 (racemic) [I-249] |
| ≤ 6.00 | CN(C)S(=O)(=O)c1cccc(OC2=NOC(C)(c3ccc(OC(F)(F)F)cc3)C2)c1 (racemic) [I-233] |
| ≥ 7.00 | C[C@]1(c2ccc(-c3ccccc3)cc2)CC(Oc2cncnc2)=NO1 (racemic) [I-104] |
| ≤ 6.00 | Cc1ccc(OC2=NOC(c3ccc(Oc4ccccc4)cc3)C2)cc1F (single isomer, unassigned) [I-31] |
| ≤ 6.00 | FC(F)(F)c1cccc(OC2=NOC(c3ccc(Oc4ccccc4)cc3)C2)c1 (single isomer, unassigned) [I-26] |
| ≥ 7.00 | O=C(O)c1ccc(OC2=NO[C@@H](c3ccc(OC(F)(F)F)c(F)c3)C2)cn1 (racemic) [I-123] |
| ≥ 7.00 | Cc1nnc(-c2cccc(OC3=NOC(c4ccc(OC(F)(F)F)cc4)C3)c2)o1 (racemic) [I-223] |
| ≥ 7.00 | FC(F)(F)c1ccc(OC2=NOC(c3ccc(Oc4ccccc4)cc3)C2)cn1 (racemic) [I-56] |
| ≥ 7.00 | CCCCOc1ccc([C@H]2CC(Oc3cncnc3)=NO2)cc1 (racemic) [I-139] |
| ≥ 7.00 | CC1(c2ccc(OC(F)(F)F)cc2)CC(Oc2ccc(S(C)(=O)=O)nc2)=NO1 (racemic) [I-167] |
| ≤ 6.00 | C[C@@H]1C(Oc2cccnc2)=NO[C@H]1c1ccc(Oc2ccccc2)cc1 (racemic) [I-91] |
| ≥ 7.00 | CC(=O)Nc1ccc(OC2=NOC(c3ccc(Oc4ccccc4)cc3)C2)cn1 (racemic) [I-94] |
| ≥ 7.00 | CN(C)C(=O)c1ccc([C@H]2CC(Br)=NO2)cc1 (racemic) [I-203] |
| 6.00 to 7.00 | Clc1ccc([C@H]2CC(Oc3cncnc3)=NO2)cc1 (racemic) [I-153] |
| ≥ 7.00 | COC(=O)c1ccc(OC2=NOC(c3ccc(Oc4ccccc4)cc3)C2)cc1 (racemic) [I-62] |
| ≥ 7.00 | CCS(=O)(=O)c1ccc(OC2=NOC(c3ccc(OC(F)(F)F)cc3)C2)cn1 (racemic) [I-182] |
| ≥ 7.00 | CC1(c2ccc(OC(F)(F)F)cc2)CC(Oc2ccc(-c3ccoc3)nc2)=NO1 (racemic) [I-154] |

| pKi | SMILES |
| --- | --- |
| ≥ 7.00 | FC(F)(F)Oc1ccc(C2CC(Oc3ccc(-c4nccs4)nc3)=NO2)cc1 (racemic) [I-162] |
| ≥ 7.00 | CS(=O)(=O)c1ccc(OC2=NO[C@@H](c3ccc(C(=O)NCc4ccccc4)cc3)C2)cn1 (racemic) [I-214] |
| 6.00 to 7.00 | COc1ccc([C@H]2CC(Oc3cccnc3)=NO2)cc1 (racemic) [I-38] |
| ≥ 7.00 | CNC(=O)c1cncc(OC2=NOC(c3ccc(OC(F)(F)F)cc3)C2)c1 (racemic) [I-54] |
| ≥ 7.00 | COc1cncc(OC2=NOC(c3ccc(Oc4ccccc4)cc3)C2)c1 (racemic) [I-65] |
| ≥ 7.00 | CN(C)S(=O)(=O)c1ccc([C@H]2CC(Oc3ccc(S(C)(=O)=O)nc3)=NO2)cc1 (racemic) [I-213] |
| ≥ 7.00 | FC(F)(F)Oc1ccc(C2CC(Br)=NO2)cc1 (racemic) [I-14, 3-bromo-5-(4-(trifluoromethoxy)phenyl)-4,5-dihydroisoxazole] |
| ≥ 7.00 | c1ccc(Oc2ccc(C3CC(Oc4cccnc4)=NO3)cc2)cc1 (single isomer, unassigned) [I-37] |
| ≥ 7.00 | BrC1=NOC(CCCOc2ccccc2)C1 (single isomer, unassigned) [I-51] |
| ≥ 7.00 | O=C(O)c1ccc(OC2=NOC(c3ccc(Oc4ccccc4)cc3)C2)cc1 (racemic) [I-147] |
| ≥ 7.00 | CS(=O)(=O)c1ccc(OC2=NO[C@@H](c3ccc(Br)cc3)C2)cn1 (racemic) [I-237] |
| ≤ 6.00 | O=C(O)c1cccc(OC2=NOC(c3ccc(OC(F)(F)F)cc3)C2)c1 (racemic) [I-176] |
| ≥ 7.00 | O=S(=O)(c1ccc([C@H]2CC(Br)=NO2)cc1)N1CCCCC1 (racemic) [I-210] |
| ≤ 6.00 | c1ccc(NC2=NOC(c3ccc(Oc4ccccc4)cc3)C2)cc1 (single isomer, unassigned) [I-32] |
| 6.00 to 7.00 | OCCNC1=NOC(c2ccc(Oc3ccccc3)cc2)C1 (racemic) [I-243] |
| ≥ 7.00 | CCCCOc1ccc([C@H]2CC(Oc3ccc(C(=O)OC)nc3)=NO2)cc1 (racemic) [I-137] |
| ≥ 7.00 | FC(F)(F)Oc1ccc(C2CC(Oc3ccc(-c4ccco4)nc3)=NO2)cc1 (racemic) [I-186] |
| ≥ 7.00 | c1ccc(-c2ccc([C@H]3CC(Oc4cncnc4)=NO3)cc2)cc1 (racemic) [I-103] |
| ≥ 7.00 | BrC1=NOC(c2ccc(-c3nnc(-c4ccccc4)o3)cc2)C1 (single isomer, unassigned) [I-19] |
| 6.00 to 7.00 | O=C(NCc1ccccc1)c1ccc([C@H]2CC(Br)=NO2)cc1 (racemic) [I-22] |
| ≥ 7.00 | Cn1cc(-c2ccc(OC3=NOC(c4ccc(OC(F)(F)F)cc4)C3)cn2)cn1 (racemic) [I-218] |
| ≥ 7.00 | FC(F)(F)Oc1ccc(C2CC(Oc3ccc(-c4nnn[nH]4)nc3)=NO2)cc1 (racemic) [I-195] |
| ≥ 7.00 | COc1ccc([C@H]2CC(Br)=NO2)cc1 (racemic) [I-6] |
